The source made the active and inactive calls. No cut-off for these calls is given here.

Experiment [1] can be described thus: Induction of DNA alkylation of 5'-Texas Red-labeled 214 bp DNA fragments with (CTG)12 repeat sequence (unknown origin) at 2.5 to 20 nM after 18 hrs by high resolution gel electrophoresis.
The nature of experiment [2]: Induction of DNA alkylation of 5'-Texas Red-labeled 214 bp DNA fragments with (5'-(CAG)12CAA-3' repeat sequence (unknown origin) at 2.5 to 20 nM after 18 hrs by high resolution gel electrophoresis.
Experiment [3] can be described thus: Induction of DNA alkylation of 5'-Texas Red-labeled 214 bp DNA fragments with (5'-TTG(CTG)12-3' repeat sequence (unknown origin) at 2.5 to 20 nM after 18 hrs by high resolution gel electrophoresis.
A short description of experiment [4]: Induction of DNA alkylation of 5'-Texas Red-labeled 214 bp DNA fragments with (CAG)12 repeat sequence (unknown origin) at 2.5 to 20 nM after 18 hrs by high resolution gel electrophoresis.
A short description of experiment [5]: Binding affinity to biotinylated (5'-AGCAGCAGCA-3'/5'-TGCTGCTGCT-3') hairpin DNA (unknown origin) by SPR assay. Background: Surface plasmon resonance follows binding to a sensor surface in real time, without labels.
Experiment [6] in a line: Binding affinity to biotinylated (5'-AGCAGCAGCA-3'/5'-TGCTGCTGCT-3') hairpin DNA (unknown origin) assessed as […] of compound from 1:1 compound and DNA complex by SPR assay.
Experiment [7] can be described thus: Binding affinity to biotinylated (5'-AGCAGCAGCA-3'/5'-TGCTGCTGCT-3') hairpin DNA (unknown origin) assessed as […] of compound from 2:1 compound and DNA complex by SPR assay.
Experiment [8] is described as follows: Induction of DNA alkylation of DNA fragments with (CTG)12 repeat sequence (unknown origin) assessed as inhibition of T7 RNA polymerase-mediated transcription using T7 promoter primer and sp6 promoter primer at 10 to 30 nM after 18 hrs by […] staining based high resolution gel electrophoresis.
Experiment [9] is described as follows: Induction of DNA alkylation of DNA fragments with (CAG)12 repeat sequence (unknown origin) assessed as inhibition of T7 RNA polymerase-mediated transcription using T7 promoter primer and sp6 promoter primer at 10 to 30 nM after 18 hrs by […] staining based high resolution gel electrophoresis.
Experiment [10] can be described thus: Induction of DNA alkylation of 5'-Texas Red-labeled 214 bp DNA fragments with (CAG)12 repeat sequence (unknown origin) at 150 nmol after 18 hrs by high resolution gel electrophoresis.

On to `CC(=O)Nc1cn(C)c(C(=O)Nc2cc(C(=O)NCCC(=O)Nc3cn(C)c(C(=O)Nc4cc(C(=O)NCCC(=O)Nc5cn(C)c(C(=O)Nc6cc(C(=O)NCCCC(=O)Nc7cn(C)c(C(=O)Nc8cc(C(=O)NCCC(=O)Nc9cn(C)c(C(=O)Nc%10cc(C(=O)NCCC(=O)Nc%11cn(C)c(C(=O)Nc%12cc(C(=O)NCCC(=O)NCCCN(C)CCCNC(=O)CCCc%13ccc(N(CCCl)CCCl)cc%13)n(C)c%12)n%11)n(C)c%10)n9)n(C)c8)n7)n(C)c6)n5)n(C)c4)n3)n(C)c2)n1`, for which the result in experiment [1], in experiment [2], in [3] and in experiment [4] was Active.

Broadly, the Kd is a measure of binding affinity in units of concentration. Compound `CC(=O)Nc1cn(C)c(C(=O)Nc2cc(C(=O)NCCC(=O)Nc3cn(C)c(C(=O)Nc4cc(C(=O)NCCC(=O)Nc5cn(C)c(C(=O)Nc6cc(C(=O)NCCCC(=O)Nc7cn(C)c(C(=O)Nc8cc(C(=O)NCCC(=O)Nc9cn(C)c(C(=O)Nc%10cc(C(=O)NCCC(=O)Nc%11cn(C)c(C(=O)Nc%12cc(C(=O)NCCC(=O)NCCCN(C)CCCN)n(C)c%12)n%11)n(C)c%10)n9)n(C)c8)n7)n(C)c6)n5)n(C)c4)n3)n(C)c2)n1` registered a Kd in experiment [5] of 53 nM.

As to `CC(=O)Nc1cn(C)c(C(=O)Nc2cc(C(=O)NCCC(=O)Nc3cn(C)c(C(=O)Nc4cc(C(=O)NCCC(=O)NCCCN(C)CCCNC(=O)CCCc5ccc(N(CCCl)CCCl)cc5)n(C)c4)n3)n(C)c2)n1`, the result in experiment [1] and in [4] was inactive.

Consider `CC(=O)Nc1cn(C)c(C(=O)Nc2cc(C(=O)NCCC(=O)Nc3cn(C)c(C(=O)Nc4cc(C(=O)NCCC(=O)NCCCN(C)CCCN)n(C)c4)n3)n(C)c2)n1`, for which the Kd in experiment [6] worked out at 610 nM; in [7], 13 nM.

On to `CC(=O)Nc1cn(C)c(C(=O)Nc2cc(C(=O)NCCC(=O)Nc3cn(C)c(C(=O)Nc4cc(C(=O)NCCC(=O)Nc5cn(C)c(C(=O)Nc6cc(C(=O)NCC[C@@H](N)C(=O)Nc7cn(C)c(C(=O)Nc8cc(C(=O)NCCC(=O)Nc9cn(C)c(C(=O)Nc%10cc(C(=O)NCCC(=O)Nc%11cn(C)c(C(=O)Nc%12cc(C(=O)NCCC(=O)NCCCN(C)CCCN)n(C)c%12)n%11)n(C)c%10)n9)n(C)c8)n7)n(C)c6)n5)n(C)c4)n3)n(C)c2)n1`, for which the result in experiment [8] and in experiment [9] was inactive. In experiment [5], this compound had a Kd of 11 nM.

For the compound `CC(=O)Nc1cn(C)c(C(=O)Nc2cc(C(=O)NCCC(=O)Nc3cn(C)c(C(=O)Nc4cc(C(=O)NCCCC(=O)Nc5cn(C)c(C(=O)Nc6cc(C(=O)NCCC(=O)Nc7cn(C)c(C(=O)Nc8cc(C(=O)NCCC(=O)NCCCN(C)CCCN)n(C)c8)n7)n(C)c6)n5)n(C)c4)n3)n(C)c2)n1`, the Kd in experiment [5] is 14 nM.

For `CC(=O)Nc1cn(C)c(C(=O)Nc2cc(C(=O)NCCC(=O)Nc3cn(C)c(C(=O)Nc4cc(C(=O)NCCC(=O)Nc5cn(C)c(C(=O)Nc6cc(C(=O)NCC[C@@H](N)C(=O)Nc7cn(C)c(C(=O)Nc8cc(C(=O)NCCC(=O)Nc9cn(C)c(C(=O)Nc%10cc(C(=O)NCCC(=O)Nc%11cn(C)c(C(=O)Nc%12cc(C(=O)NCCC(=O)NCCCN(C)CCCNC(=O)CCCc%13ccc(N(CCCl)CCCl)cc%13)n(C)c%12)n%11)n(C)c%10)n9)n(C)c8)n7)n(C)c6)n5)n(C)c4)n3)n(C)c2)n1`, the Activity result in experiment [8] and in experiment [9] was “Dose-dependent effect” each time. The result in experiment [2] and in experiment [3] was Active.

Take `CC(=O)Nc1cn(C)c(C(=O)Nc2cc(C(=O)NCCC(=O)Nc3cn(C)c(C(=O)Nc4cc(C(=O)NCCCC(=O)Nc5cn(C)c(C(=O)Nc6cc(C(=O)NCCC(=O)Nc7cn(C)c(C(=O)Nc8cc(C(=O)NCCC(=O)NCCCN(C)CCCNC(=O)CCCc9ccc(N(CCCl)CCCl)cc9)n(C)c8)n7)n(C)c6)n5)n(C)c4)n3)n(C)c2)n1`: the outcome in [1] and in [10] was Active. In experiment [4], the outcome was inactive.

Values taken from ChEMBL document CHEMBL3351867, “Sequence-specific DNA alkylation and transcriptional inhibition by long-chain hairpin pyrrole-imidazole polyamide-chlorambucil conjugates targeting CAG/CTG trinucleotide repeats” (Bioorg Med Chem, 2014).
